Results on 15 compounds are retold here after PubChem BioAssay (NCI).

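Growth conditions: 96-well plates. Treatment: test compound, 48 hours, 5 concentrations. Analysis: linear interpolation between bracketing concentrations; unreached endpoints set to highest concentration. At the GI50, growth is halved. TGI is the concentration that stops growth completely.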

Some test systems named below: BT-549 breast; CCRF-CEM leukemia; K-562 leukemia; LOX IMVI melanoma; RPMI-8226 leukemia; SNB-75 CNS; SW-620 colon; U251 CNS; UO-31 renal; HCC-2998 colon.
Assay in all cases: NCI tumour cell line growth inhibition, 48 h

On to `CCOC(=O)c1nc2ccc(C(F)(F)F)cc2nc1Oc1cc(OC)cc(OC)c1`, for which the TGI in the experiment with BT-549 breast is > 100 µM; with CCRF-CEM leukemia, > 100 µM; in the experiment with K-562 leukemia, > 100 µM; in the experiment with LOX IMVI melanoma it was > 100 µM; in the experiment with RPMI-8226 leukemia it was > 100 µM; in the experiment with SNB-75 CNS, 75.6 µM. The TGI with SW-620 colon, with U251 CNS and in the experiment with UO-31 renal was > 100 µM each time.

`CC(=O)c1c(C(F)(F)F)n([O-])c2cc(Cl)c(Cl)cc2[n+]1=O`: the TGI in the experiment on BT-549 breast came out at 0.8 µM; with CCRF-CEM leukemia, 0.563 µM; in the experiment on K-562 leukemia, 3.42 µM; with LOX IMVI melanoma it was 0.489 µM; in the experiment with RPMI-8226 leukemia, 0.353 µM; in the experiment with SNB-75 CNS, 2.25 µM. Further, the TGI was 1.34 µM in the experiment with SW-620 colon, 2.63 µM in the experiment with U251 CNS and 1.59 µM in the experiment on UO-31 renal.

Take `CCN(C(=S)N[C@H](C(=O)N[C@@H](C)C(=O)OC)C(C)C)c1ccccc1`: the TGI with BT-549 breast is > 100 µM; with CCRF-CEM leukemia, > 100 µM; with HCC-2998 colon, > 100 µM; in the experiment on K-562 leukemia it was 80.2 µM; in the experiment on LOX IMVI melanoma, > 100 µM; with RPMI-8226 leukemia it was > 100 µM. For the same compound, the TGI with SW-620 colon, in the experiment on U251 CNS and in the experiment with UO-31 renal was > 100 µM throughout.

`COc1ccc2nc3cc([N+](=O)[O-])ccc3c(Nc3ccc(S(=O)(=O)NC(C)=O)cc3)c2c1`: the TGI in the experiment on BT-549 breast, in the experiment on CCRF-CEM leukemia, with HCC-2998 colon, in the experiment with K-562 leukemia, in the experiment on LOX IMVI melanoma and with RPMI-8226 leukemia was > 100 µM each time. The TGI in the experiment with SW-620 colon, in the experiment on U251 CNS and in the experiment with UO-31 renal was > 100 µM throughout.

Regarding `CCOC(=O)c1cnc2oc3ccc(O)cc3c2c1-c1ccccc1`, the TGI was > 100 µM in the experiment with CCRF-CEM leukemia; > 100 µM in the experiment on HCC-2998 colon; > 100 µM with K-562 leukemia; > 100 µM with LOX IMVI melanoma; > 100 µM with RPMI-8226 leukemia; 52.4 µM in the experiment on SNB-75 CNS. Also, the TGI in the experiment on SW-620 colon and with U251 CNS was > 100 µM in each case. Also, the GI50 in the experiment on SNB-75 CNS was 16.5 µM.

Take `O=C1C(=O)c2ccccc2C(O)=C1CCCc1ccc(Oc2ccccc2)cc1`: the TGI in the experiment with CCRF-CEM leukemia is > 100 µM; with HCC-2998 colon, 74.3 µM; with K-562 leukemia, > 100 µM; in the experiment on LOX IMVI melanoma it was 15.3 µM; in the experiment on RPMI-8226 leukemia, > 100 µM; in the experiment on SNB-75 CNS, 73.9 µM. Also, the TGI with SW-620 colon is > 100 µM; with U251 CNS, > 100 µM; in the experiment with UO-31 renal, 32.6 µM.

Regarding `CCOC(=O)Cc1cc(OC)c(OC)cc1/C(Cl)=C(\C=O)c1ccc(OC)c(OC)c1`, the TGI with K-562 leukemia is 56.5 µM; in the experiment on LOX IMVI melanoma it was 36.4 µM; in the experiment on RPMI-8226 leukemia, 43.1 µM; in the experiment with SNB-75 CNS, > 100 µM; in the experiment with SW-620 colon it was 57 µM; in the experiment with U251 CNS, 33.1 µM. For the same compound, the TGI with UO-31 renal stood at 85.3 µM.

As for `CC1(c2ccc[n+](Cc3ccccc3)c2)OCCO1`, the TGI in the experiment on CCRF-CEM leukemia, with HCC-2998 colon, in the experiment with K-562 leukemia, in the experiment on LOX IMVI melanoma, in the experiment on RPMI-8226 leukemia and in the experiment on SNB-75 CNS was > 100 µM in each case. Also, the TGI in the experiment with SW-620 colon, in the experiment on U251 CNS and in the experiment on UO-31 renal was > 100 µM each time.

Take `COc1ccc(-c2cc(-c3cc4cc(Br)ccc4nc3Cl)c(C#N)c(N)n2)cc1`: the TGI in the experiment with BT-549 breast, with CCRF-CEM leukemia, with K-562 leukemia, in the experiment on LOX IMVI melanoma, in the experiment with RPMI-8226 leukemia and in the experiment with SNB-75 CNS was > 12.5 µM throughout. Moreover, the TGI with SW-620 colon and in the experiment on UO-31 renal was > 12.5 µM each time.

Regarding `COc1cc(C(C)c2cc3c(cc2OCCO)OCO3)cc(OC)c1OC` (centres undefined), the TGI in the experiment on CCRF-CEM leukemia is > 100 µM; with HCC-2998 colon, > 100 µM; in the experiment with K-562 leukemia, > 100 µM; in the experiment on LOX IMVI melanoma, > 100 µM; in the experiment on RPMI-8226 leukemia, > 100 µM; in the experiment with SNB-75 CNS it was 4.34 µM. Besides, the TGI with SW-620 colon, in the experiment on U251 CNS and with UO-31 renal was > 100 µM each time.

Take `OC(CCNCc1ccccc1)c1ccc2ccccc2c1` (centres undefined): the TGI in the experiment with CCRF-CEM leukemia is > 100 µM; in the experiment with HCC-2998 colon it was 62.8 µM; in the experiment on K-562 leukemia, 50.9 µM; in the experiment with LOX IMVI melanoma it was 27.2 µM; with RPMI-8226 leukemia, 73.3 µM; with SNB-75 CNS, 75.6 µM. In addition, the TGI with SW-620 colon was 43.1 µM; in the experiment with U251 CNS, 30.6 µM; with UO-31 renal, 32.3 µM.

For the compound `CC1(C)CC(=O)c2c(nc3ccc4ccccc4c3c2-c2ccc(NC(=O)CCCCCCCCC(=O)Nc3ccc(-c4c5c(nc6ccc7ccccc7c46)CC(C)(C)CC5=O)cc3)cc2)C1`, the TGI in the experiment with BT-549 breast, in the experiment on CCRF-CEM leukemia, in the experiment on K-562 leukemia, with LOX IMVI melanoma, in the experiment with RPMI-8226 leukemia and in the experiment on SW-620 colon was > 100 µM in each case. The TGI with U251 CNS and in the experiment with UO-31 renal was > 100 µM throughout.

`CN1CCN(CCCBr)CC1`: the TGI in the experiment with BT-549 breast, in the experiment on CCRF-CEM leukemia, with K-562 leukemia, in the experiment with LOX IMVI melanoma, with RPMI-8226 leukemia and in the experiment with SNB-75 CNS was > 100 µM throughout. In addition, the TGI with SW-620 colon, in the experiment with U251 CNS and with UO-31 renal was > 100 µM in each case.

In the case of `CN(C)c1nc2oc(-c3ccccc3)c(-c3ccccc3)c2c2nnnn12`, the TGI in the experiment with CCRF-CEM leukemia, in the experiment on HCC-2998 colon, in the experiment with K-562 leukemia, in the experiment with LOX IMVI melanoma, with RPMI-8226 leukemia and in the experiment on SNB-75 CNS was > 100 µM in each case. For the same compound, the TGI in the experiment on SW-620 colon, in the experiment with U251 CNS and with UO-31 renal was > 100 µM throughout.

Consider `COc1ccc(C2N(NC(=O)c3ccncc3)C(=O)CS2(=O)=O)cc1F` (centres undefined), for which the TGI in the experiment on CCRF-CEM leukemia, in the experiment on HCC-2998 colon, in the experiment with LOX IMVI melanoma, in the experiment on RPMI-8226 leukemia, in the experiment on SNB-75 CNS and in the experiment on SW-620 colon was > 100 µM throughout. In the experiment with U251 CNS, the TGI is > 100 µM.
